Measurements: US8809549B2, “Esters of bendamustine and related compounds, and medical use thereof” (Arevipharma GmbH, priority 2012, dated 2014)

Experiments:
[1] = tested on: human malignant tumour cell lines; test: Comparative cytotoxicity, all cell lines investigated; format: cell-based; conditions: against all human malignant tumour cell lines investigated (Table 1)
Experimental: (§1) For the determination of cytotoxicity two different assays were used depending on the characteristics of the treated cells. For adherently growing cells the crystal violet assay^[b] was used. Instead of complete removal of the conditioned culture medium, 100 μl of fresh medium, containing a two-fold higher concentration of the test compounds than the desired final concentration were added 2-3 days after seeding the cells at a density of about 5000 cells/well (100 μl).
(§2) For loosely adherent cells and cells growing in suspension, the MTT-assay^[a] was used. Suspension cells were seeded at a density of 8000 cells/well (100 μl). In case of suspension cells, 100 μl of medium, containing the test compounds bendamustine HCl and bendamustine mofetil ester (or bendamustine methyl ester), were added directly after seeding of the cells. Loosely adherent cells were seeded at a density of 5000 cells/well (100 μl) and treated as described for the crystal violet assay.
In all cases, one plate was measured at the time, when substances were added (t0-plate). The MTT-(2.5 mg/ml) solution (PBS) was freshly prepared for each measurement. 20 μl of this solution were added per well (100 μl) of each plate at subsequent days. Incubation period with MTT was 3 hours at 37° C. […] Absorbance was measured at a wavelength of 580 nm. […]

[2] = tested on: Capan-1 (pancreatic carcinoma, ATCC HTB-80); test: Cytotoxicity, crystal violet assay, Capan-1; format: cell-based, human
Experimental: as §1
(§3) Eight different human cancer cell lines were treated according to the above general procedure for comparative determination of cytotoxicity of bendamustine-HCl and bendamustine mofetil ester.

[3] = tested on: U-937 (histocytic lymphoma, ATCC CRL-1593.2); test: Cytotoxicity, MTT assay, U-937; format: cell-based, human
Experimental: as §2
(§4) In all cases, one plate was measured at the time, when substances were added (t0-plate). The MTT-(2.5 mg/ml) solution (PBS) was freshly prepared for each measurement. 20 μl of this solution were added per well (100 μl) of each plate at subsequent days. Incubation period with MTT was 3 hours at 37° C. After incubation, the plates were centrifuged, and the medium was removed to a residual volume of 50 μl per well. Then, 100 μl of DMSO were added, and the plates were shaken for 1 hour. Absorbance was measured at a wavelength of 580 nm.
as §3

[4] = tested on: SK-ES1 (Ewing sarcoma, ATCC HTB-86); test: Cytotoxicity, MTT assay, SK-ES1; format: cell-based, human
Experimental: as §2, §4, §3

[5] = tested on: LnCap clone FGC (prostate cancer, metastasis of a subclavicular lymph node, ATCC CRL-1740); test: Cytotoxicity, MTT assay, LnCap clone FGC; format: cell-based, human
Experimental: as §2, §4, §3

[6] = tested on: MG-63 (osteosarcoma, ATCC CRL-1427); test: Cytotoxicity, crystal violet assay, MG-63; format: cell-based, human
Experimental: as §1, §3

[7] = tested on: HEL92.1.7 (erythroleukemia, ATCC TIB-180); test: Cytotoxicity, MTT assay, HEL92.1.7; format: cell-based, human
Experimental: as §2, §4, §3

[8] = tested on: NCl-H460 (large cell bronchial carcinoma, ATCC HTB-177); test: Cytotoxicity, crystal violet assay, NCl-H460; format: cell-based, human
Experimental: as §1, §3

[9] = tested on: Jurkat (acute T-cell leukemia, ATCC TIB-152); test: Cytotoxicity, MTT assay, Jurkat; format: cell-based, human
Experimental: as §2, §4, §3

[10] = Homo sapiens, long-term exposure (96 h), MTT assay, errors as 95% confidence intervals

Cn1c(CCCC(=O)OCCN2CCOCC2)nc2cc(N(CCCl)CCCl)ccc21 [bendamustine mofetil ester, 2-morpholinoethyl 4-(5-(bis(2-chloroethyl)amino)-1-methyl-1H-benzo[d]imidazol-2-yl)butanoate]
cytotoxicity compared to bendamustine-HCl [1]: remarkably enhanced cytotoxicity | ratio (IC50 bendamustine-HCl / IC50 bendamustine mofetil ester) ([2]; Capan-1, 96 h): 19.4 | IC50 ([2]; Homo sapiens, Capan-1, long-term exposure (96 h), crystal violet assay, errors as 95% confidence intervals): 1.3 ± 0.3 µM | IC50 ([3]; Homo sapiens, U-937, long-term exposure (96 h), MTT assay, errors as 95% confidence intervals): 4.2 ± 0.9 µM | ratio (IC50 bendamustine-HCl / IC50 bendamustine mofetil ester) ([3]; U-937, 96 h): 21.9 | IC50 ([4]; Homo sapiens, SK-ES1, long-term exposure (96 h), MTT assay, errors as 95% confidence intervals): 0.9 ± 0.2 µM | ratio (IC50 bendamustine-HCl / IC50 bendamustine mofetil ester) ([4]; SK-ES1, 96 h): 12.2 | ratio (IC50 bendamustine-HCl / IC50 bendamustine mofetil ester) ([5]; 96 h): 34.1 | IC50 [5, 10]: 2.1 ± 0.6 µM | IC50 ([6]; Homo sapiens, MG-63, long-term exposure (96 h), crystal violet assay, errors as 95% confidence intervals): 3.4 ± 0.7 µM | ratio (IC50 bendamustine-HCl / IC50 bendamustine mofetil ester) ([6]; MG-63, 96 h): 16.2 | ratio (IC50 bendamustine-HCl / IC50 bendamustine mofetil ester) ([7]; HEL92.1.7, 96 h): 24.7 | IC50 ([7]; Homo sapiens, HEL 92.1.7, HEL92.1.7, long-term exposure (96 h), MTT assay, errors as 95% confidence intervals): 3.4 ± 0.4 µM | IC50 ([8]; Homo sapiens, NCl-H460, long-term exposure (96 h), crystal violet assay, errors as 95% confidence intervals): 8.6 ± 0.6 µM | ratio (IC50 bendamustine-HCl / IC50 bendamustine mofetil ester) ([8]; NCl-H460, 96 h): 10.4 | ratio (IC50 bendamustine-HCl / IC50 bendamustine mofetil ester) ([9]; 96 h): 10.1 | IC50 [9, 10]: 4.2 ± 0.3 µM
